From patent publication US20120245137A1 (Zalicus Pharmaceuticals Ltd., priority 2009, published 2012) come the findings set out here.

The term IC50 denotes the concentration that inhibits the measured activity by half.

N-type calcium channel subunits (α1B, α2δ, and β3a), sequence (Q00975 whole entry): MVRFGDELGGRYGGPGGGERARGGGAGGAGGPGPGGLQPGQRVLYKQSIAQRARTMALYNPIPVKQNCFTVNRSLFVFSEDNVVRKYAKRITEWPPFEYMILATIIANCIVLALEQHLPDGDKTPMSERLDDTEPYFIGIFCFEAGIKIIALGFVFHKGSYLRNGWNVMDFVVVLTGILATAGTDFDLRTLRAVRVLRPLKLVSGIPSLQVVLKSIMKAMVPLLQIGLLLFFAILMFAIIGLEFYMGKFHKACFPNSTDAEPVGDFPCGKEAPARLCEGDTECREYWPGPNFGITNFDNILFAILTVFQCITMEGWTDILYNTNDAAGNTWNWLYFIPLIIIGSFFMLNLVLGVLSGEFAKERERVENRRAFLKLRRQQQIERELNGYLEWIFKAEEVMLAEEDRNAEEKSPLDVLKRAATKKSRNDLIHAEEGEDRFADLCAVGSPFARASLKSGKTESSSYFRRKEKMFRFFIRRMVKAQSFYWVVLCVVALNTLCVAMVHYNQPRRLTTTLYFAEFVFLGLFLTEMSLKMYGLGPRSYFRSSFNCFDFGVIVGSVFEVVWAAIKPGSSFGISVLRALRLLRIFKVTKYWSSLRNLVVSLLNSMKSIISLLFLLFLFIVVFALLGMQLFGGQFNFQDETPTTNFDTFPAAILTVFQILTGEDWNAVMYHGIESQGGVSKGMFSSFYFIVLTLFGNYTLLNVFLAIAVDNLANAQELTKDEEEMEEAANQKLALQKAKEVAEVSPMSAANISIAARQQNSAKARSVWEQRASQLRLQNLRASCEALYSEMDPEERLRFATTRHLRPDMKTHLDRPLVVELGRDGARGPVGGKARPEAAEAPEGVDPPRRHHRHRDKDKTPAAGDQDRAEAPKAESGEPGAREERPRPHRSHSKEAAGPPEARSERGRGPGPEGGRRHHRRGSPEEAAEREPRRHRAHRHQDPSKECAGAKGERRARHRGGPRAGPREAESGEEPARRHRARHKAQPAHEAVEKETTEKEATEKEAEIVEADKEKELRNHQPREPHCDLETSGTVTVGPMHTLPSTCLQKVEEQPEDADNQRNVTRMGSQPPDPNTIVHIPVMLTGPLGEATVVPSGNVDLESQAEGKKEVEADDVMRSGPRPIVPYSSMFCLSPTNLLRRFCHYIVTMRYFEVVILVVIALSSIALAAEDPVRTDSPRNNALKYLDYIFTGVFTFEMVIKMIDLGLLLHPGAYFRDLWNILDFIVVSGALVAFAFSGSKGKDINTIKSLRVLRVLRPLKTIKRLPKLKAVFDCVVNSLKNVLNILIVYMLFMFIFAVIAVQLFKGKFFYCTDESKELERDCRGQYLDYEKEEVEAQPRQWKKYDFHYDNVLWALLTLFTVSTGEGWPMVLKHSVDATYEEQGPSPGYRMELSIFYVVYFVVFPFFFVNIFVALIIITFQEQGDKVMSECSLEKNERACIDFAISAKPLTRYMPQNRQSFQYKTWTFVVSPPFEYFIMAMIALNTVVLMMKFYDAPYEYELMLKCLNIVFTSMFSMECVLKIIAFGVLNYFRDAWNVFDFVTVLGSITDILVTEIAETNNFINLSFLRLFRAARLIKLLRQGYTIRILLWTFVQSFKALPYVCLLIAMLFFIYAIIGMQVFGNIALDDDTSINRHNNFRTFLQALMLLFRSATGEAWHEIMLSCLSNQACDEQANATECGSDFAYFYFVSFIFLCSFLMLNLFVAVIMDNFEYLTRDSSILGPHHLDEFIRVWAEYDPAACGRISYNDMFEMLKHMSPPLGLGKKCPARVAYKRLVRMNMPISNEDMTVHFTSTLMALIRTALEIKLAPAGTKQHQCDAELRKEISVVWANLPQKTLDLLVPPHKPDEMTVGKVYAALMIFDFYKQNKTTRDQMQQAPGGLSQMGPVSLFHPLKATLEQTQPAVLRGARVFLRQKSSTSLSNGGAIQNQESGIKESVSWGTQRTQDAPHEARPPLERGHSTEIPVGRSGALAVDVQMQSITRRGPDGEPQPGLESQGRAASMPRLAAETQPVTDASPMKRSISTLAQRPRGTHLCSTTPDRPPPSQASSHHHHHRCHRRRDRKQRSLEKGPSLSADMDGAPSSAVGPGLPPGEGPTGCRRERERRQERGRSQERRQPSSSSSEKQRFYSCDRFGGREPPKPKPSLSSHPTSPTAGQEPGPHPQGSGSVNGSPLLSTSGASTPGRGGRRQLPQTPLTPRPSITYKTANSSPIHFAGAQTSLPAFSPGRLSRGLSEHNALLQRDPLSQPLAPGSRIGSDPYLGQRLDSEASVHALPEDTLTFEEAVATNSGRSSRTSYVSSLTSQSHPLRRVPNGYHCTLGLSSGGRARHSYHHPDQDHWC
N-type calcium channel subunits (α1B, α2δ, and β3a), sequence (P54289 25-1103 partner): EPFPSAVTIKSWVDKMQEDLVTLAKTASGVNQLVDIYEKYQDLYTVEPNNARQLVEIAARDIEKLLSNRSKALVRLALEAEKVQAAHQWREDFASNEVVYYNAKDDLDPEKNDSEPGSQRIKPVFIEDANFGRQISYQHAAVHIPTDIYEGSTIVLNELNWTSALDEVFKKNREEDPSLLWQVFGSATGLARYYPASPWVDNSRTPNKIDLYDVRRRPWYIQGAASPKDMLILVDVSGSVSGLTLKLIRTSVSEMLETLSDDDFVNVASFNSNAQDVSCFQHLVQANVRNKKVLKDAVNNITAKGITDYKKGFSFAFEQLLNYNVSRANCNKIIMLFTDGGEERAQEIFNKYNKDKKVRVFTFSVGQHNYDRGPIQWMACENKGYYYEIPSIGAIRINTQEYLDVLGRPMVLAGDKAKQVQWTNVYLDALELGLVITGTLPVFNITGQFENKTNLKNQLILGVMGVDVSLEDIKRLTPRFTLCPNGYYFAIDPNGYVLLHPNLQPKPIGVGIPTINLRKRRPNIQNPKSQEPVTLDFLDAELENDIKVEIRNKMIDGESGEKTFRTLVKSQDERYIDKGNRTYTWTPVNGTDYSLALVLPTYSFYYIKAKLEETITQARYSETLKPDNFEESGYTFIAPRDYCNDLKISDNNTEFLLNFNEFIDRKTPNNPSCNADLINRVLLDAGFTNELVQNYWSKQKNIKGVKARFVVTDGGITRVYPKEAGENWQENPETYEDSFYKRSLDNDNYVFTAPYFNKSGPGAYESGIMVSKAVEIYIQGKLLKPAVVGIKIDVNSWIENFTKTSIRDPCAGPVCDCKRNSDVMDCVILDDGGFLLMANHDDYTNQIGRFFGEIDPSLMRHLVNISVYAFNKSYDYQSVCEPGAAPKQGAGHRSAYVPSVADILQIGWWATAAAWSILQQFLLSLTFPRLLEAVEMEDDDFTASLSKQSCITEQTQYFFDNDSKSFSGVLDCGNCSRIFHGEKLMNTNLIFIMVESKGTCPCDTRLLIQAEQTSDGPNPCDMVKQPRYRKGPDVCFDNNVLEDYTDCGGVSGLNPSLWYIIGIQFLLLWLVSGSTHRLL
N-type calcium channel subunits (α1B, α2δ, and β3a), sequence (P54284 whole entry partner): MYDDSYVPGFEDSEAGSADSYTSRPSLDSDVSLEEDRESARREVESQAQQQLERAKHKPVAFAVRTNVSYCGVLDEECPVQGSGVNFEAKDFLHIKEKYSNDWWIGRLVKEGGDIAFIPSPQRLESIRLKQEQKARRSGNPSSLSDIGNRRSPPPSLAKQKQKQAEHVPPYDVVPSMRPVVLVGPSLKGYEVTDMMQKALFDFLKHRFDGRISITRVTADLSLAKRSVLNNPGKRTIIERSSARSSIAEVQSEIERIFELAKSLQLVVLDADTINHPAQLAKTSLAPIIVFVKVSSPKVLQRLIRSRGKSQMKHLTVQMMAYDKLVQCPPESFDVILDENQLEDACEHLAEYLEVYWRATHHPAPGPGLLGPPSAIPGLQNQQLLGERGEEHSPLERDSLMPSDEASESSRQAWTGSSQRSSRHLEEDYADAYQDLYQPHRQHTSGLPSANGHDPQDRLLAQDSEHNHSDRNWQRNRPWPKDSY

For the assay, the target named is N-type calcium channel subunits (α1B, α2δ, and β3a) (Homo sapiens, UniProt Q00975). Briefly: Block of Cav2.2 channel, whole cell voltage clamp, manual and PatchXpress. The class given is cell-based. Particulars: Table 5; table follows Assay Example 3 (whole cell voltage clamp / PatchXpress); assay not given. As to the method:
Cells are grown either on poly-D-lysine coated coverglass (manual EP) or in TIS culture plates (PatchXpress). For the PatchExpress, cells are released from the flask using trypsin. In both cases, the […] solution is (in mM): 130 […], 10 EGTA, 10 HEPES, 2 MgCl2, 3 MgATP, pH 7.3 with CsOH.
Microelectrodes are fabricated from borosilicate glass and fire-polished. […] The reference electrode is a silver-silver chloride pellet. Voltages are not corrected for the liquid junction potential between the internal and external solutions and leak is subtracted using the P/n procedure. Solutions are applied to cells by bath perfusion via gravity. The experimental chamber volume is—0.2 mL. and the perfusion rate is 0.5-2 mL/min. Flow of suction through the chamber is maintained at all times. Measurement of current amplitudes is performed with […] software (HEKA Elektronik).
PatchXpress (Molecular Devices) is a 16-well whole-cell automated patch clamp device that operates asynchronously with fully integrated fluidics. […] Capacitance and series resistance compensation is automated. No correction for liquid junction potentials is employed. Leak is subtracted using the P/n procedure. Compounds are added to cells with a pipettor from a 96-well compound plate. Voltage protocols and the recording of membrane currents are performed using the PatchXpress software/hardware system. Current amplitudes are calculated with DataXpress software.
In both manual and automated patch clamp, cells are voltage clamped at […] or −90 m V and 50 ms pulses to +20 mV are applied every 15 sec (0.067 Hz). Compounds are added in escalating doses to measure % inhibition. Percent inhibition is calculated from the ratio of the curerent amplitude in the presence and absence of compound. When multiple doses are achieved per cell, IC50 values are calculated.
Regarding `O=C(CN1CCCCC1)N[C@H]1CC[C@H](CS(=O)(=O)c2cccc(C(F)(F)F)c2)CC1` [Compound 164, 2-(piperidin-1-yl)-N-((1R,4R)-4-((3-(trifluoromethyl)phenylsulfonyl)methyl)cyclohexyl)acetamide], the 50% inhibitory concentration (IC50) was 1810 nM. The result for `O=C(N[C@H]1CC[C@H](CS(=O)(=O)c2cccc(C(F)(F)F)c2)CC1)c1cnccc1C(F)(F)F` [Compound 169, 4-(trifluoromethyl)-N-((1R,4R)-4-((3-(trifluoromethyl)phenylsulfonyl)methyl)cyclohexyl)nicotinamide] reads 7110 nM; that for `O=C(N[C@H]1CC[C@H](CS(=O)(=O)c2cccc(C(F)(F)F)c2)CC1)c1nsc(Cl)c1Cl` [Compound 170, 4,5-dichloro-N-((1R,4R)-4-((3-(trifluoromethyl)phenylsulfonyl)methyl)cyclohexyl)isothiazole-3-carboxamide], 4920 nM. The result for `O=C(N[C@H]1CC[C@H](CS(=O)(=O)c2cccc(C(F)(F)F)c2)CC1)c1ccc(OCC(F)(F)F)nc1` [Compound 171, 6-(2,2,2-trifluoroethoxy)-N-((1R,4R)-4-((3-(trifluoromethyl)phenylsulfonyl)methyl)cyclohexyl)nicotinamide] reads 480 nM. Take `O=C(N[C@H]1CC[C@H](CS(=O)(=O)c2cccc(C(F)(F)F)c2)CC1)c1ccnc(C(F)(F)F)c1` [Compound 176, 2-(trifluoromethyl)-N-((1R,4R)-4-((3-(trifluoromethyl)phenylsulfonyl)methyl)cyclohexyl)isonicotinamide]: the IC50 came out at 9440 nM.

For the compound `O=C(N[C@H]1CC[C@H](CS(=O)(=O)c2cccc(C(F)(F)F)c2)CC1)c1cncc(C(F)(F)F)c1` [Compound 177, 5-(trifluoromethyl)-N-((1R,4R)-4-((3-(trifluoromethyl)phenylsulfonyl)tmehyl)cyclohexyl)nicotinamide], the IC50 came out at 2060 nM. For `O=C(N[C@H]1CC[C@H](S(=O)(=O)c2cccc(C(F)(F)F)c2)CC1)c1ccnn1CC(F)(F)F` [Compound 180, 1-(2,2,2-trifluoroethyl)-N-((1R,4R)-4-(3-(trifluoromethyl)phenylsulfonyl)cyclohexyl)-1H-pyrazole-5-carboxamide], the IC50 turned out to be 3350 nM. In the case of `O=C(N[C@H]1CC[C@H](S(=O)(=O)c2cccc(C(F)(F)F)c2)CC1)c1ccnc(Cl)c1` [Compound 181, 2-chloro-N-((1R,4R)-4-(3-(trifluoromethyl)phenylsulfonyl)cyclohexyl)isonicotinamide] it was 1830 nM.

Take `O=C(N[C@H]1CC[C@H](S(=O)(=O)c2cccc(C(F)(F)F)c2)CC1)c1ccc(OCC(F)(F)F)nc1` [Compound 184]: the IC50 was found to be 3110 nM. The result for `Cc1cc(C(=O)N[C@H]2CC[C@H](S(=O)(=O)c3cccc(C(F)(F)F)c3)CC2)c(C(F)(F)F)o1` [Compound 185, 5-methyl-2-(trifluoromethyl)-N-((1R,4R)-4-(3-(trifluoromethyl)phenylsulfonyl)cyclohexyl)furan-3-carboxamide] reads 1630 nM; that for `O=C(N[C@H]1CC[C@H](S(=O)(=O)c2cccc(C(F)(F)F)c2)CC1)c1ccc(C(F)(F)F)nc1` [Compound 186, 6-(trifluoromethyl)-N-((1R,4R)-4-(3-(trifluoromethyl)phenylsulfonyl)cyclohexyl)nicotinamide], 5840 nM; that for `O=C(N[C@H]1CC[C@H](S(=O)(=O)c2cccc(C(F)(F)F)c2)CC1)c1ccnc(C(F)(F)F)c1` [Compound 189, 2-(trifluoromethyl)-N-((1R,4R)-4-(3-(trifluoromethyl)phenylsulfonyl)cyclohexyl)isonicotinamide], 1540 nM.

As to `CC(C)(C)S(=O)(=O)c1ccsc1C(=O)N[C@H]1CC[C@H](S(=O)(=O)c2cccc(C(F)(F)F)c2)CC1` [Compound 191, 3-(tert-butylsulfonyl)-N-((1R,4R)-4-(3-(trifluoromethyl)phenylsulfonyl)cyclohexyl)thiophene-2-carboxamide], the IC50 stood at 1220 nM.

Consider `O=C(N[C@H]1CC[C@@H](S(=O)(=O)c2cccc(C(F)(F)F)c2)CC1)c1ccnc(Cl)c1` [Compound 194, 2-chloro-N-((1S,4S)-4-(3-(trifluoromethyl)phenylsulfonyl)cyclohexyl)isonicotinamide], for which the IC50 was 1330 nM. Take `O=C(N[C@H]1CC[C@@H](S(=O)(=O)c2cccc(C(F)(F)F)c2)CC1)c1cnccc1C(F)(F)F` [Compound 195, 4-(trifluoromethyl)-N-((1S,4S)-4-(3-(trifluoromethyl)phenylsulfonyl)cyclohexyl)nicotinamide]: the IC50 was found to be 3150 nM.

Turning to `O=C(N[C@H]1CC[C@@H](S(=O)(=O)c2cccc(C(F)(F)F)c2)CC1)c1ccnc(F)c1` [Compound 201, 2-fluoro-N-((1S,4S)-4-(3-(trifluoromethyl)phenylsulfonyl)cyclohexyl)isonicotinamide], the IC50 was 1860 nM. In the case of `O=C(N[C@H]1CC[C@@H](S(=O)(=O)c2cccc(C(F)(F)F)c2)CC1)c1cnc(C(F)(F)F)nc1` [Compound 205, 2-(trifluoromethyl)-N-((1S,4S)-4-(3-(trifluoromethyl)phenylsulfonyl)cyclohexyl)pyrimidine-5-carboxamide], the IC50 turned out to be 1700 nM. The result for `O=C(CN[C@H]1C[C@H](S(=O)(=O)c2cccc(C(F)(F)F)c2)C1)N1CCC(C(F)(F)F)CC1` [Compound 214, 2-(trans-3-(3-(trifluoromethyl)phenylsulfonyl)cyclobutylamino)-1-(4-(trifluoromethyl)piperidin-1-yl)ethanone] reads 2090 nM. In the case of `CC(C)(C)NC(=O)CN[C@H]1C[C@H](S(=O)(=O)c2cccc(C(F)(F)F)c2)C1` [Compound 215, N-tert-butyl-2-(trans-3-(3-(trifluoromethyl)phenylsulfonyl)cyclobutylamino)acetamide] it was 2810 nM; in that of `O=C(CN[C@H]1C[C@H](S(=O)(=O)c2cccc(C(F)(F)F)c2)C1)NC1CCCCC1` [Compound 216, N-cyclohexyl-2-(trans-3-(3-(trifluoromethyl)phenylsulfonyl)cyclobutylamino)acetamide], 1010 nM. The result for `O=C(N[C@H]1C[C@H](S(=O)(=O)c2cccc(C(F)(F)F)c2)C1)c1cc(F)cc(Cl)c1` [Compound 220, 3-chloro-5-fluoro-N-(trans-3-(3-(trifluoromethyl)phenylsulfonyl)cyclobutyl)benzamide] reads 3350 nM. Take `COc1cc(F)cc(C(=O)N[C@H]2C[C@H](S(=O)(=O)c3cccc(C(F)(F)F)c3)C2)c1` [Compound 222, 3-fluoro-5-methoxy-N-(trans-3-(3-(trifluoromethyl)phenylsulfonyl)cyclobutyl)benzamide]: the IC50 is 2960 nM.

For `O=C(N[C@H]1C[C@H](S(=O)(=O)c2cccc(C(F)(F)F)c2)C1)c1ccc(F)c(C(F)(F)F)c1` [Compound 224, 4-fluoro-3-(trifluoromethyl)-N-(trans-3-(3-(trifluoromethyl)phenylsulfonyl)cyclobutyl)benzamide], the IC50 was determined as 1500 nM. The result for `O=C(N[C@H]1C[C@H](S(=O)(=O)c2cccc(C(F)(F)F)c2)C1)c1ccc(F)c(Cl)c1` [Compound 225, 3-chloro-4-fluoro-N-(trans-3-(3-(trifluoromethyl)phenylsulfonyl)cyclobutyl)benzamide] reads 2350 nM; that for `Cn1nc(C(F)(F)F)cc1C(=O)N[C@H]1C[C@H](S(=O)(=O)c2cccc(C(F)(F)F)c2)C1` [Compound 226, 1-methyl-3-(trifluoromethyl)-N-(trans-3-(3-(trifluoromethyl)phenylsulfonyl)cyclobutyl)-1H-pyrazole-5-carboxamide], 2150 nM. On to `COc1cc(F)cc(C(=O)NC[C@]2(O)CC[C@@H](S(=O)(=O)c3cccc(C(F)(F)F)c3)CC2)c1` [Compound 229, 3-fluoro-N-(((1S,4S)-1-hydroxy-4-(3-(trifluoromethyl)phenylsulfonyl)cyclohexyl)methyl)-5-methoxybenzamide], for which the IC50 turned out to be 1020 nM. In the case of `Cn1nc(C(F)(F)F)cc1C(=O)NC[C@]1(O)CC[C@@H](S(=O)(=O)c2cccc(C(F)(F)F)c2)CC1` [Compound 231, N-(((1S,4S)-1-hydroxy-4-(3-(trifluoromethyl)phenylsulfonyl)cyclohexyl)methyl)-1-methyl-3-(trifluoromethyl)-1H-pyrazole-5-carboxamide] it was 1870 nM; in that of `O=C(NC[C@]1(O)CC[C@@H](S(=O)(=O)c2cccc(C(F)(F)F)c2)CC1)c1ccc(C(F)(F)F)cn1` [Compound 232, N-(((1S,4S)-1-hydroxy-4-(3-(trifluoromethyl)phenylsulfonyl)cyclohexyl)methyl)-5-(trifluoromethyl)picolinamide], 2660 nM. In the case of `CS(=O)(=O)c1cc(C(F)(F)F)ccc1C(=O)NC[C@]1(O)CC[C@@H](S(=O)(=O)c2cccc(C(F)(F)F)c2)CC1` [Compound 233, N-(((1S,4S)-1-hydroxy-4-(3-(trifluoromethyl)phenylsulfonyl)cyclohexyl)methyl)-2-(methylsulfonyl)-4-(trifluoromethyl)benzamide] it was 3570 nM.
